Inconclusive results are not listed. The calls were made as follows: active = survival T/C of 150% or more; inactive = T/C below 125% in these data.
System: Madison 109 lung carcinoma i.m., mice, median survival
Experiment: NCI In Vivo Anticancer Drug Screen. Data for tumor model Madison 109 Lung Carcinoma (intramuscular) in unknown mice
Conditions: endpoint: median survival time, higher = longer survival
Description: The antitumor activity of compounds was measured in mice bearing transplantable tumors. Survival or tumor size were measured and the results are expressed as the measurement made in the treated group (T) divided by the measurement made in the vehicle treated control group (C). The tumor model used in this assay is Madison 109 Lung Carcinoma (intramuscular) in unknown mice

[1] = dose: 10.0 mg/kg/injection, schedule: Q01DX009 (ip), vehicle: water
[2] = dose: 20.0 mg/kg/injection, schedule: Q01DX009 (ip), vehicle: water
[3] = dose: 50.0 mg/kg/injection, schedule: Q01DX009 (ip), vehicle: other
[4] = dose: 3.0 mg/kg/injection, schedule: Q01DX009 (ip), vehicle: water
[5] = dose: 6.0 mg/kg/injection, schedule: Q01DX009 (ip), vehicle: water
[6] = dose: 5.0 mg/kg/injection, schedule: Q01DX009 (ip), vehicle: saline
[7] = dose: 10.0 mg/kg/injection, schedule: Q01DX009 (ip), vehicle: saline
[8] = dose: 1.5 mg/kg/injection, schedule: Q01DX009 (ip), vehicle: water
[9] = dose: 2.5 mg/kg/injection, schedule: Q01DX009 (ip), vehicle: water
[10] = dose: 40.0 mg/kg/injection, schedule: Q01DX009 (ip), vehicle: water

Measured: T/C

C[C@@H]1C[C@@H]([C@H](O)CC2CC(=O)NC(=O)C2)C(=O)[C@@H](C)C1
inactive: [1] 94 % of control | [2] 100 % of control

NC(=O)c1cn[nH]c1N
inactive: [3] 97 % of control | dose: 100.0 mg/kg/injection, schedule: Q01DX009 (ip), vehicle: other 94 % of control | dose: 200.0 mg/kg/injection, schedule: Q01DX009 (ip), vehicle: other 92 % of control | dose: 400.0 mg/kg/injection, schedule: Q01DX009 (ip), vehicle: other 102 % of control

CC[C@H]1CN2CCc3cc(OC)c(OC)cc3[C@@H]2C[C@@H]1C[C@H]1NCCc2cc(OC)c(OC)cc21
inactive: dose: 2.0 mg/kg/injection, schedule: Q01DX009 (ip), vehicle: water 115 % of control | [4] 115 % of control | dose: 4.0 mg/kg/injection, schedule: Q01DX009 (ip), vehicle: water 112 % of control | [5] 115 % of control

O=c1[nH]cc(F)c(=O)[nH]1
inactive: [6] 94 % of control | [7] 88 % of control | dose: 15.0 mg/kg/injection, schedule: Q01DX009 (ip), vehicle: saline 123 % of control | dose: 20.0 mg/kg/injection, schedule: Q01DX009 (ip), vehicle: saline 113 % of control

C[C@]12C=CC(=O)C=C1CC[C@@H]1[C@@H]2C(=O)C[C@@]2(C)[C@H]1CC[C@]2(O)C(=O)CO
inactive: [6] 113 % of control | [7] 117 % of control | dose: 40.0 mg/kg/injection, schedule: Q01DX009 (ip), vehicle: saline 120 % of control

C/C(=N/N=C(N)N)c1ccc(NC(=O)Nc2ccc(/C(C)=N/N=C(N)N)cc2)cc1
inactive: dose: 25.0 mg/kg/injection, schedule: Q01DX009 (ip), vehicle: water 115 % of control | dose: 50.0 mg/kg/injection, schedule: Q01DX009 (ip), vehicle: water 106 % of control

c1ccc([C@H]2CN3CCSC3=N2)cc1
inactive: dose: 0.75 mg/kg/injection, schedule: Q01DX009 (ip), vehicle: water 114 % of control | [8] 122 % of control | [4] 97 % of control | [5] 108 % of control

OC(CBr)C(O)C(O)C(O)CBr (stereo not given)
inactive: dose: 25.0 mg/kg/injection, schedule: Q01DX009 (ip), vehicle: Klucel (hydroxypropylcellulose) (HPC) 94 % of control | dose: 50.0 mg/kg/injection, schedule: Q01DX009 (ip), vehicle: Klucel (hydroxypropylcellulose) (HPC) 123 % of control | dose: 100.0 mg/kg/injection, schedule: Q01DX009 (ip), vehicle: Klucel (hydroxypropylcellulose) (HPC) 117 % of control

COc1cccc2c1C(=O)c1c(O)c3c(c(O)c1C2=O)CC(O)(C(=O)CO)CC3OC1CC(N)C(O)C(C)O1 (stereo not given)
inactive: dose: 5.5 mg/kg/injection, schedule: Q01DX005 (ip), vehicle: water 100 % of control | dose: 52.5 mg/kg/injection, schedule: Q01DX005 (ip), vehicle: water 102 % of control

S=P(N1CC1)(N1CC1)N1CC1
inactive: [8] 110 % of control | [9] 101 % of control | [4] 92 % of control | dose: 5.0 mg/kg/injection, schedule: Q01DX009 (ip), vehicle: water 109 % of control | [5] 105 % of control | [1] 107 % of control | [10] 110 % of control

COC1=C(OC)C(=O)C(C/C=C(\C)CC/C=C(\C)CC/C=C(\C)CC/C=C(\C)CC/C=C(\C)CC/C=C(\C)CC/C=C(\C)CC/C=C(\C)CC/C=C(\C)CCC=C(C)C)=C(C)C1=O
inactive: dose: 1.0 mg/kg/injection, schedule: Q01DX009 (ip), vehicle: other 95 % of control | dose: 2.0 mg/kg/injection, schedule: Q01DX009 (ip), vehicle: other 97 % of control | dose: 4.0 mg/kg/injection, schedule: Q01DX009 (ip), vehicle: other 94 % of control | dose: 8.0 mg/kg/injection, schedule: Q01DX009 (ip), vehicle: other 94 % of control | dose: 16.0 mg/kg/injection, schedule: Q01DX009 (ip), vehicle: other 102 % of control

CN(Cc1cnc2nc(N)nc(N)c2n1)c1ccc(C(=O)N[C@@H](CCC(=O)O)C(=O)O)cc1
inactive: dose: 0.07 mg/kg/injection, schedule: Q01DX009 (ip), vehicle: sodium bicarbonate 99 % of control | dose: 0.15 mg/kg/injection, schedule: Q01DX009 (ip), vehicle: sodium bicarbonate 123 % of control | dose: 0.3 mg/kg/injection, schedule: Q01DX009 (ip), vehicle: sodium bicarbonate 108 % of control | dose: 0.6 mg/kg/injection, schedule: Q01DX009 (ip), vehicle: sodium bicarbonate 111 % of control

CC1=C(/C=C/C(C)=C/C=C/C(C)=C/C(=O)O)C(C)(C)CCC1
inactive: dose: 25.0 mg/kg/injection, schedule: Q01DX009 (ip), vehicle: other 94 % of control | [3] 95 % of control

COc1ccc(C[C@H](N)C(=O)NC2C(CO)OC(n3cnc4c(N(C)C)ncnc43)C2O)cc1 (stereo not given in full)
inactive: [1] 104 % of control | [2] 105 % of control | [10] 104 % of control | dose: 80.0 mg/kg/injection, schedule: Q01DX009 (ip), vehicle: water 105 % of control

CO[C@@]12[C@H](COC(N)=O)C3=C(C(=O)C(C)=C(N)C3=O)N1C[C@@H]1N[C@@H]12
inactive: dose: 0.1 mg/kg/injection, schedule: Q01DX009 (ip), vehicle: saline 106 % of control | dose: 0.2 mg/kg/injection, schedule: Q01DX009 (ip), vehicle: saline 96 % of control | dose: 0.4 mg/kg/injection, schedule: Q01DX009 (ip), vehicle: saline 108 % of control | dose: 0.8 mg/kg/injection, schedule: Q01DX009 (ip), vehicle: saline 109 % of control

O=CC(NC(=O)N(CCCl)N=O)C(O)C(O)C(O)CO (stereo not given)
inactive: dose: 5.0 mg/kg/injection, schedule: Q01DX001 (ip), vehicle: saline 108 % of control | dose: 8.4 mg/kg/injection, schedule: Q01DX001 (ip), vehicle: saline 106 % of control | dose: 14.0 mg/kg/injection, schedule: Q01DX001 (ip), vehicle: saline 105 % of control | dose: 23.0 mg/kg/injection, schedule: Q01DX001 (ip), vehicle: saline 96 % of control

COc1cccc2c1C(=O)c1c(O)c3c(c(O)c1C2=O)C[C@@](O)(C(C)=O)C[C@@H]3OC1CC(N)C(O)C(C)O1 (stereo not given in full)
inactive: dose: 0.25 mg/kg/injection, schedule: Q04DX003 (ip), vehicle: water 108 % of control | dose: 0.5 mg/kg/injection, schedule: Q04DX003 (ip), vehicle: water 120 % of control | dose: 1.0 mg/kg/injection, schedule: Q01DX009 (ip), vehicle: water 111 % of control | dose: 1.0 mg/kg/injection, schedule: Q04DX003 (ip), vehicle: water 94 % of control | [8] 55 % of control | dose: 1.5 mg/kg/injection, schedule: Q04DX003 (ip), vehicle: water 122 % of control | [9] 32 % of control
